How the values were obtained:
[1] = tested on: colorectal cancer cell line HCT116; test: Alamar Blue cell proliferation assay, HCT116; assay type: cell-based; conditions: for HCT116 cell proliferation inhibition pIC50: HCT116 cells; for IC50: Homo sapiens, HCT-116, HCT116 cells, read-out: HCT116 cell proliferation inhibition pIC50 (converted)
Procedure: (§1) For experiments in 384 wells plates the cells were seeded at a density of 5×10^3 cells/ml in Falcon 384-well culture plates (Life Technologies, Merelbeke, Belgium), black with clear bottom, in 45 μl culture medium. Cells were allowed to adhere to plastic for 24 hr. The tested compound was pre-diluted (1/50 in culture medium) and 5 μl pre-diluted compound was added to the wells. Following 4-day incubation, 10 μl of the Alamar Blue solution was added to each well and the cells were further incubated for 5 hrs (A2780) at 37° C. The fluorescence intensity was measured for each well with a Fluorescence plate reader (Fluorskan, Labsystems, 540 nm excitation and 590 nm emission)
(§2) The antiproliferative activity was calculated as percentage of remaining viable cells in treated versus control (untreated cells) conditions. Within an experiment, the result for each experimental condition is the mean of 3 replicate wells. When appropriate, the experiments were repeated to establish full concentration-response curves. When appropriate, IC50-values (concentration of the drug, needed to reduce cell growth to 50% of the control) were computed using probit analysis for graded data (Finney, D. J., Probit Analyses, 2nd Ed. Chapter 10, Graded Responses, Cambridge University Press, Cambridge 1962). Herein the effects of test compounds are expressed as pIC50 (the negative log value of the IC50-value (M)) (see Table 5A).
(§3) Compounds were also tested according to the above protocol but using other cell lines: colorectal cancer cell line HCT116, non-small cell lung cancer cell line H1299, human prostate cancer cell line DU145.

[2] = tested on: human prostate cancer cell line DU145; test: Alamar Blue cell proliferation assay, DU145; assay type: cell-based; conditions: for DU145 cell proliferation inhibition pIC50: DU145 cells; for IC50: Homo sapiens, DU-145, DU145 cells, read-out: DU145 cell proliferation inhibition pIC50 (converted)
Procedure: as §1, §2, §3

SMILES	HCT116 cell proliferation inhibition pIC50 [1]	DU145 cell proliferation inhibition pIC50 [2]	IC50 [2] [nM]	IC50 [1] [nM]
COC1CCc2c(Nc3ccc(NCCc4c[nH]c5c(C(C)(C)O)cccc45)cc3)ccnc21 (single isomer, unassigned) [Compound 24]	–	–	295	38
Cc1cc(Nc2ccnc3c2CCC3(C)O)ccc1NCCc1c[nH]c2c(C(C)(C)O)cccc12 (single isomer, unassigned) [Compound 26]	7.26	6.18	–	–
Cc1cc(Nc2ccnc3c2CCC3(C)O)ccc1NCCc1c[nH]c2c(C(C)(C)O)cccc12 (single isomer, unassigned) [Compound 27]	–	–	1000	83.2
COC1CCc2c(Nc3ccc(NCCc4c[nH]c5c(C(C)(C)O)cccc45)c(C)c3)ccnc21 (single isomer, unassigned) [Compound 28]	7.11	6.52	–	–
COC1CCc2c(Nc3ccc(NCCc4c[nH]c5c(C(C)(C)O)cccc45)c(C)c3)ccnc21 (single isomer, unassigned) [Compound 29]	7.37	6.58	–	–
CC(C)(O)c1cccc2c(CCNc3ccc(Nc4ccnc5c4CCC5(C)O)cc3)c[nH]c12 (single isomer, unassigned) [Compound 30]	7.19	6.14	–	–
CC(C)(O)c1cccc2c(CCNc3ccc(Nc4ccnc5c4CCC5(C)O)cc3)c[nH]c12 (single isomer, unassigned) [Compound 31]	6.94	6.04	–	–
Cc1cc(Nc2ccnc3c2CCC3(C)O)ccc1NCCc1c[nH]c2c(C(C)(C)O)cccc12 (centres unmarked) [Compound 1]	–	–	1200	151
Cc1cc(Nc2ccncc2)ccc1NCCc1c[nH]c2c(C(C)(C)O)cccc12 [Compound 2]	–	–	692	–
Cc1cc(Nc2ccnc3c2CCC3=O)ccc1NCCc1c[nH]c2c(C(C)O)cccc12 (centres unmarked) [Compound 4]	–	–	5130	1000
Cc1cc(Nc2ccnc(CO)c2)ccc1NCCc1c[nH]c2c(C(C)O)cccc12 (centres unmarked) [Compound 5]	–	–	2750	347
OCc1cccc2c(CCNc3ccc(Nc4ccnc5c4CCC5O)cc3)c[nH]c12 (centres unmarked) [Compound 6]	–	–	–	4070
C=C(C)c1cccc2c(CCNc3ccc(Nc4ccnc5c4CCC5OC)cc3)c[nH]c12 (centres unmarked) [Compound 7]	–	–	251	100
Cc1cc(Nc2ccnc3c2CCC3O)ccc1NCCc1c[nH]c2c(CCC(C)O)cccc12 (centres unmarked) [Compound 9]	–	–	5500	955
Cc1cc(Nc2ccnc3c2CCC3O)ccc1NCCc1c[nH]c2c(C(C)(C)O)cccc12 (centres unmarked) [Compound 18]	–	6.40	–	53.7
Cc1cc(Nc2ccnc(CO)c2)ccc1NCCc1c[nH]c2c(C(C)(C)O)cccc12 [Compound 19]	–	5.74	–	–
Cc1cc(Nc2ccnc3c2CCC3O)ccc1NCCc1c[nH]c2c(C(C)(C)O)cccc12 (centres unmarked) [Compound 20]	–	5.73	–	–
Cc1cc(Nc2ccncc2)ccc1NCCc1c[nH]c2c(C(O)C(C)C)cccc12 (centres unmarked) [Compound 22]	–	5.07	–	–

More lines, main results first:

HCT116 cell proliferation inhibition pIC50 [1]	SMILES	DU145 cell proliferation inhibition pIC50 [2]	IC50 [2] [nM]	IC50 [1] [nM]
6.06	Cc1cc(Nc2ccnc3c2CCC3O)ccc1NCCc1c[nH]c2c(C(C)O)cccc12 (single isomer, unassigned) [Compound 12]	–	–	–
6.69	Cc1cc(Nc2ccnc3c2CCC3O)ccc1NCCc1c[nH]c2c(C(C)O)cccc12 (single isomer, unassigned) [Compound 15]	–	–	–
5.53	Cc1cc(Nc2ccnc3c2CCC3O)ccc1NCCc1c[nH]c2c(CCO)cccc12 (single isomer, unassigned) [Compound 23]	5	–	–
6.47	Cc1cc(Nc2ccnc3c2CCC3(C)O)ccc1NCCc1c[nH]c2c(C(C)O)cccc12 (centres unmarked) [Compound 10]	5.65	–	–
6.67	COc1cc(Nc2ccnc3c2CCC3O)ccc1NCCc1c[nH]c2c(C(C)(C)O)cccc12 (centres unmarked) [Compound 11]	6.21	–	–
6.68	COC1CCc2c(Nc3ccc(NCCc4c[nH]c5c(C(C)O)cccc45)c(C)c3)ccnc21 (centres unmarked) [Compound 16]	5.98	–	–

Reference: patent publication US8541442B2, “Indole derivatives as anticancer agents” (Janssen Pharmaceutica N.V., priority 2009, dated 2013)
